Legend:
rape = assay: Test B pre/postemergence rape; type: in vivo, Brassica napus
Procedure, shortened: (§1)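 Herbicidal effect was estimated by eye on a ten-point control scale after plants spent twelve to sixteen days in a greenhouse following soil or foliar treatment. Foliar sprays targeted plants at one to four leaves; all doses were formulated in a non-phytotoxic solvent with surfactant.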

blackgrass = assay: Test B pre/postemergence blackgrass; type: in vivo, Alopecurus myosuroides
Procedure, shortened: as §1

wheat = assay: Test B pre/postemergence wheat; type: in vivo, Triticum aestivum
Procedure, shortened: as §1

sugar beet = assay: Test B pre/postemergence sugar beet; type: in vivo, Beta vulgaris
Procedure, shortened: as §1

giant foxtail = assay: Test B pre/postemergence giant foxtail; type: in vivo, Setaria faberii
Procedure, shortened: as §1

purple nutsedge = assay: Test B pre/postemergence purple nutsedge; type: in vivo, Cyperus rotundus
Procedure, shortened: as §1

pigweed = assay: Test B pre/postemergence pigweed; type: in vivo, Amaranthus retroflexus
Procedure, shortened: as §1

corn = assay: Test B pre/postemergence corn; type: in vivo, Zea mays
Procedure, shortened: as §1

soybean = assay: Test B pre/postemergence soybean; type: in vivo, Glycine max
Procedure, shortened: as §1

cocklebur = assay: Test B pre/postemergence cocklebur; type: in vivo, Xanthium strumarium
Procedure, shortened: as §1

surinam grass = assay: Test B pre/postemergence surinam grass; type: in vivo, Brachiaria decumbens
Procedure, shortened: as §1

wild oat = assay: Test B pre/postemergence wild oat; type: in vivo, Avena fatua
Procedure, shortened: as §1

morningglory = assay: Test B pre/postemergence morningglory; type: in vivo, Ipomoea hederacea
Procedure, shortened: as §1

bedstraw = assay: Test B pre/postemergence bedstraw; type: in vivo, Galium aparine
Procedure, shortened: as §1

velvetleaf = assay: Test B pre/postemergence velvetleaf; type: in vivo, Abutilon theophrasti
Procedure, shortened: as §1

crabgrass = assay: Test B pre/postemergence crabgrass; type: in vivo, Digitaria sanguinalis
Procedure, shortened: as §1

[1] = Postemergence, Rate 62 g/ha, scale 0 to 10, 0 is no effect, 10 is complete control
[2] = Postemergence, Rate 125 g/ha, scale of 0 to 10 where 0 is no effect and 10 is complete control
[3] = Preemergence, Rate 125 g/ha, scale of 0 to 10 where 0 is no effect and 10 is complete control
[4] = Preemergence, Rate 250 g/ha, scale 0 (no effect) to 10 (complete control)
[5] = Rate 62 g/ha, Preemergence, scale 0 to 10
[6] = Rate 250 g/ha, Postemergence, scale 0 to 10, 0 is no effect, 10 is complete control
[7] = Rate 500 g/ha, Postemergence, scale 0 to 10, 0 is no effect, 10 is complete control
[8] = Rate 500 g/ha, Preemergence, scale 0 to 10 (0 no effect, 10 complete control)
[9] = Preemergence, Rate 62 g/ha, scale of 0 to 10 where 0 is no effect and 10 is complete control

CC(C)N(C(=O)n1oc(=O)n(C[C@H](C)Cl)c1=O)c1ccccc1 [Compound 747]
8: Plant response rating, Blackgrass (blackgrass; [3]) | Blackgrass plant response rating (blackgrass; [5]) | Blackgrass plant response rating (blackgrass; [6]) | Blackgrass plant response rating (blackgrass; [7]) | Blackgrass plant response rating (blackgrass; [8]) | Plant response rating, Giant foxtail (giant foxtail; [1]) | Redroot pigweed plant response rating (pigweed; [4]) | Redroot pigweed plant response rating (pigweed; [5]) | Redroot pigweed plant response rating (pigweed; [7]) | Soybean plant response rating (soybean; [7]) | Plant response rating, B. signalgrass (surinam grass; [3]) | Plant response rating, Bedstraw (bedstraw; [1]) | Bedstraw plant response rating (bedstraw; [2])
4: Plant response rating, Rape (rape; [1]) | Rape plant response rating (rape; [2]) | Rape plant response rating (rape; [6]) | Wheat plant response rating (wheat; [6]) | Wheat plant response rating (wheat; [7]) | Sugarbeets plant response rating (sugar beet; [5]) | Nutsedge plant response rating (purple nutsedge; [4]) | Plant response rating, Redroot pigweed (pigweed; [1]) | Redroot pigweed plant response rating (pigweed; [2]) | Corn plant response rating (corn; [6]) | Plant response rating, Soybean (soybean; [1]) | Soybean plant response rating (soybean; [2]) | Cocklebur plant response rating (cocklebur; [7]) | B. signalgrass plant response rating (surinam grass; [6]) | Velvetleaf plant response rating (velvetleaf; [2]) | Velvetleaf plant response rating (velvetleaf; [5]) | Velvetleaf plant response rating (velvetleaf; [6])
10: Rape plant response rating (rape; [4]) | Plant response rating, Giant foxtail (giant foxtail; [3]) | Giant foxtail plant response rating (giant foxtail; [4]) | Giant foxtail plant response rating (giant foxtail; [5]) | Giant foxtail plant response rating (giant foxtail; [8]) | Morningglory plant response rating (morningglory; [6]) | Morningglory plant response rating (morningglory; [7]) | Plant response rating, Crabgrass (crabgrass; [3]) | Crabgrass plant response rating (crabgrass; [4]) | Crabgrass plant response rating (crabgrass; [5]) | Crabgrass plant response rating (crabgrass; [8])
9: Plant response rating, Rape (rape; [3]) | Rape plant response rating (rape; [7]) | Giant foxtail plant response rating (giant foxtail; [2]) | Giant foxtail plant response rating (giant foxtail; [6]) | Giant foxtail plant response rating (giant foxtail; [7]) | Corn plant response rating (corn; [8]) | Soybean plant response rating (soybean; [8]) | B. signalgrass plant response rating (surinam grass; [8]) | Morningglory plant response rating (morningglory; [2]) | Crabgrass plant response rating (crabgrass; [2]) | Crabgrass plant response rating (crabgrass; [6]) | Crabgrass plant response rating (crabgrass; [7])
0: Plant response rating, Wheat (wheat; [1]) | Wheat plant response rating (wheat; [2]) | Wheat plant response rating (wheat; [4]) | Wheat plant response rating (wheat; [5]) | Plant response rating, Sugarbeets (sugar beet; [1]) | Sugarbeets plant response rating (sugar beet; [2]) | Sugarbeets plant response rating (sugar beet; [6]) | Plant response rating, Nutsedge (purple nutsedge; [1]) | Nutsedge plant response rating (purple nutsedge; [2]) | Nutsedge plant response rating (purple nutsedge; [5]) | Nutsedge plant response rating (purple nutsedge; [6]) | Nutsedge plant response rating (purple nutsedge; [7]) | Plant response rating, Corn (corn; [1]) | Corn plant response rating (corn; [2]) | Plant response rating, Soybean (soybean; [3]) | Soybean plant response rating (soybean; [4]) | Soybean plant response rating (soybean; [5]) | Plant response rating, Cocklebur (cocklebur; [1]) | Cocklebur plant response rating (cocklebur; [2]) | Cocklebur plant response rating (cocklebur; [4]) | Cocklebur plant response rating (cocklebur; [5]) | Cocklebur plant response rating (cocklebur; [8]) | Plant response rating, Wild oats (wild oat; [1]) | Wild oats plant response rating (wild oat; [2]) | Plant response rating, Morningglory (morningglory; [3]) | Morningglory plant response rating (morningglory; [4]) | Morningglory plant response rating (morningglory; [5]) | Plant response rating, Bedstraw (bedstraw; [3]) | Bedstraw plant response rating (bedstraw; [5]) | Bedstraw plant response rating (bedstraw; [8]) | Plant response rating, Velvetleaf (velvetleaf; [1])
1: Plant response rating, B. signalgrass (surinam grass; [1])
6: Plant response rating, Sugarbeets (sugar beet; [3]) | Corn plant response rating (corn; [4]) | B. signalgrass plant response rating (surinam grass; [7]) | Plant response rating, Velvetleaf (velvetleaf; [3])
2: Plant response rating, Nutsedge (purple nutsedge; [3]) | Nutsedge plant response rating (purple nutsedge; [8]) | Plant response rating, Corn (corn; [3]) | Corn plant response rating (corn; [5]) | Cocklebur plant response rating (cocklebur; [6]) | Wild oats plant response rating (wild oat; [6]) | Wild oats plant response rating (wild oat; [7]) | Plant response rating, Morningglory (morningglory; [1])
7: Rape plant response rating (rape; [5]) | Blackgrass plant response rating (blackgrass; [2]) | Sugarbeets plant response rating (sugar beet; [4]) | Redroot pigweed plant response rating (pigweed; [6]) | Soybean plant response rating (soybean; [6]) | B. signalgrass plant response rating (surinam grass; [9]) | Morningglory plant response rating (morningglory; [8]) | Velvetleaf plant response rating (velvetleaf; [4]) | Velvetleaf plant response rating (velvetleaf; [7]) | Velvetleaf plant response rating (velvetleaf; [8])
5: Plant response rating, Blackgrass (blackgrass; [1]) | Corn plant response rating (corn; [7])
3: Sugarbeets plant response rating (sugar beet; [7]) | B. signalgrass plant response rating (surinam grass; [2]) | Wild oats plant response rating (wild oat; [4]) | Wild oats plant response rating (wild oat; [5]) | Plant response rating, Crabgrass (crabgrass; [1])

CC(C)N(C(=O)n1oc(=O)n(C(C)C2CCC2)c1=O)c1ccc(F)cc1 (centres unmarked) [Compound 718]
4: Plant response rating, Redroot pigweed (pigweed; [3])
10: Blackgrass plant response rating (blackgrass; [8]) | Giant foxtail plant response rating (giant foxtail; [9]) | Plant response rating, Giant foxtail (giant foxtail; [3]) | Giant foxtail plant response rating (giant foxtail; [4]) | Giant foxtail plant response rating (giant foxtail; [8]) | Plant response rating, Crabgrass (crabgrass; [3]) | Crabgrass plant response rating (crabgrass; [4]) | Crabgrass plant response rating (crabgrass; [8])
7: B. signalgrass plant response rating (surinam grass; [4])
6: Redroot pigweed plant response rating (pigweed; [4])
9: Plant response rating, Blackgrass (blackgrass; [3]) | Blackgrass plant response rating (blackgrass; [4]) | B. signalgrass plant response rating (surinam grass; [8]) | Crabgrass plant response rating (crabgrass; [9])
0: Rape plant response rating (rape; [9]) | Plant response rating, Rape (rape; [3]) | Wheat plant response rating (wheat; [9]) | Plant response rating, Wheat (wheat; [3]) | Wheat plant response rating (wheat; [4]) | Sugarbeets plant response rating (sugar beet; [9]) | Plant response rating, Sugarbeets (sugar beet; [3]) | Nutsedge plant response rating (purple nutsedge; [9]) | Nutsedge plant response rating (purple nutsedge; [4]) | Nutsedge plant response rating (purple nutsedge; [8]) | Redroot pigweed plant response rating (pigweed; [9]) | Corn plant response rating (corn; [9]) | Plant response rating, Corn (corn; [3]) | Corn plant response rating (corn; [4]) | Soybean plant response rating (soybean; [9]) | Plant response rating, Soybean (soybean; [3]) | Soybean plant response rating (soybean; [4]) | Soybean plant response rating (soybean; [8]) | Cocklebur plant response rating (cocklebur; [9]) | Plant response rating, Cocklebur (cocklebur; [3]) | Cocklebur plant response rating (cocklebur; [4]) | Cocklebur plant response rating (cocklebur; [8]) | B. signalgrass plant response rating (surinam grass; [9]) | Morningglory plant response rating (morningglory; [9]) | Plant response rating, Morningglory (morningglory; [3]) | Morningglory plant response rating (morningglory; [4]) | Morningglory plant response rating (morningglory; [8]) | Bedstraw plant response rating (bedstraw; [9]) | Plant response rating, Bedstraw (bedstraw; [3]) | Bedstraw plant response rating (bedstraw; [4]) | Bedstraw plant response rating (bedstraw; [8]) | Velvetleaf plant response rating (velvetleaf; [9]) | Plant response rating, Velvetleaf (velvetleaf; [3]) | Velvetleaf plant response rating (velvetleaf; [4]) | Velvetleaf plant response rating (velvetleaf; [8])
8: Blackgrass plant response rating (blackgrass; [9]) | Redroot pigweed plant response rating (pigweed; [8]) | Wild oats plant response rating (wild oat; [8])
3: Rape plant response rating (rape; [8]) | Corn plant response rating (corn; [8])
2: Rape plant response rating (rape; [4]) | Wheat plant response rating (wheat; [8]) | Sugarbeets plant response rating (sugar beet; [4]) | Sugarbeets plant response rating (sugar beet; [8]) | Plant response rating, B. signalgrass (surinam grass; [3]) | Wild oats plant response rating (wild oat; [9]) | Plant response rating, Wild oats (wild oat; [3])

Reference: patent publication US6737383B1, “Herbicidal oxadiazolidines” (priority 1999, dated 2004)
